Measured values published in patent US10689327B2, “Prodrug amino acid derivative” (TAISHO PHARMACEUTICALS CO., LTD., priority 2016, dated 2020).

Legend:
mice = conditions: cited from earlier work
mGlu3 receptor = mGlu3 receptor (Homo sapiens (Human), UniProt Q14832); conditions: reported in literature; cited from earlier work
mGlu2 receptor = mGlu2 receptor (Homo sapiens (Human), UniProt Q14416); conditions: reported in literature; cited from earlier work
rats = conditions: 1 mg/kg; cited from earlier work
[1] = target: human metabotropic glutamate receptor mGluR3 (Homo sapiens (Human), UniProt Q14832); assay: [35S]GTPγS binding test, mGluR3; assay type: biochemical; conditions: inhibition of glutamate (1 μM)-stimulated [35S]GTPγS specific binding, CHO cell membranes
human metabotropic glutamate receptor mGluR3, sequence (Q14832 23-879): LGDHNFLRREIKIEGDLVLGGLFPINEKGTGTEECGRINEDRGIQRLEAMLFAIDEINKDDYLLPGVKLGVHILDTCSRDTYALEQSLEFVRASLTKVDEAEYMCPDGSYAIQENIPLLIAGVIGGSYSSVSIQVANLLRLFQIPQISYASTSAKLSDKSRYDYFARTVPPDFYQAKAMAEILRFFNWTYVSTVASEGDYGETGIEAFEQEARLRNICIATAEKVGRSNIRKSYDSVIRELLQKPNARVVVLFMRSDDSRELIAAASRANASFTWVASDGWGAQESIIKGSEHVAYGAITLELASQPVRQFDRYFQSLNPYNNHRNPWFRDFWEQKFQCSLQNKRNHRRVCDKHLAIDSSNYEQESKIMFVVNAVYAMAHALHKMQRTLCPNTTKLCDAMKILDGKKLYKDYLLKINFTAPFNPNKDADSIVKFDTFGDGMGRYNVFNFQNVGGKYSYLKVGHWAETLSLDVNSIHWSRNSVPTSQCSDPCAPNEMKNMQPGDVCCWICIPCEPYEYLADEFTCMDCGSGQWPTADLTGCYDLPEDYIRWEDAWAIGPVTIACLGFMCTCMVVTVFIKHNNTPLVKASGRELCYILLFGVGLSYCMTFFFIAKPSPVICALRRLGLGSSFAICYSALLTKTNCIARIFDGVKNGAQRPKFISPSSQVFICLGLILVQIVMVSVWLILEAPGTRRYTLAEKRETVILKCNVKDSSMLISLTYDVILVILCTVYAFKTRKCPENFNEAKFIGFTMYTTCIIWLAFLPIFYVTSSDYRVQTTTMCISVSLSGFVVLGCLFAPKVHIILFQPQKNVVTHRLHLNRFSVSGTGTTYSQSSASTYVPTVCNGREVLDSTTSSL
Description: (§1) Test 1 [^35S]GTPγS binding test
(§2) CHO cells stably expressing human metabotropic glutamate receptors mGluR2 and mGluR3 were cultured at 37° C. under 5% CO2 using a Dulbecco's modified Eagle medium [1% proline, 1 mM sodium pyruvate, 1 mM succinic acid, 1 mM disodium succinate, 100 units/mL penicillin, 100 μg/mL streptomycin, 400 (mGluR2) or 300 (mGluR3) μg/mL hygromycin B, 2 mM L-glutamine (added just before use)] containing 10% dialyzed fetal bovine serum. The cells in a confluent state were washed with PBS(−), then dissociated using a cell scraper, and centrifuged at 1000 rpm for 5 minutes at 4° C. to recover the cells. The obtained pellet was suspended in a 20 mM HEPES buffer (pH 7.4) (mGluR2) or 20 mM HEPES buffer containing 1 mM EDTA (pH 7.4) (mGluR3), and the suspension was homogenized in a Teflon® homogenizer and then centrifuged at 48,000×g for 20 minutes at 4° C. to obtain a pellet again. The obtained pellet was subjected to two additional cycles of washing and centrifugation and then homogenized with the buffer described above to obtain a crude membrane fraction. The crude membrane fraction was diluted with a buffer for a binding test (final concentration: 20 mM HEPES, 100 mM NaCl, 10 mM MgCl2, 10 μM GDP, […], 0.1% BSA) (mGluR2) or (final concentration: 20 mM HEPES, 1 mM EDTA, 100 mM NaCl, 10 mM MgCl2, 10 μM GDP, 10 μg/mL saponin, 0.1% BSA) (mGluR3). To the crude membrane fraction containing 10 μg of membrane proteins/assay, Compounds (II)-1 to (II)-15 were each added, and the mixture was incubated at 30° C. for 20 minutes. Then, glutamate (final concentration: 20 (mGluR2) or 1 (mGluR3) μM) and [^35S]GTPγS (final concentration: 0.15 nM) were added thereto, and the mixture was incubated at 30° C. for 1 hour. The solution thus incubated was filtered by suction onto Whatman GF/C filter, and the filter was washed with 1000 μL of an ice-cooled 20 mM HEPES buffer (pH 7.4) (mGluR2) or 20 mM HEPES buffer containing 1 mM EDTA (pH 7.4) (mGluR3). A scintillation cocktail was added to the obtained filter, and the membrane binding radioactivity was measured using a liquid scintillation counter. The residual radioactivity in the absence of glutamate was defined as nonspecific binding, and the difference from the residual radioactivity in the presence of glutamate was defined as specific binding. From the percent inhibition of specific binding at varying concentrations of Compounds (II)-1 to (II)-15, an inhibition curve was obtained using nonlinear analysis. The concentrations at which Compounds (II)-1 to (II)-15 inhibited 50% of specific binding (IC50) were calculated from the inhibition curve.

[2] = target: human metabotropic glutamate receptor mGluR2 (Homo sapiens (Human), UniProt Q14416); assay: [35S]GTPγS binding test, mGluR2; assay type: biochemical; conditions: inhibition of glutamate (20 μM)-stimulated [35S]GTPγS specific binding, CHO cell membranes
human metabotropic glutamate receptor mGluR2, sequence (Q14416 19-872): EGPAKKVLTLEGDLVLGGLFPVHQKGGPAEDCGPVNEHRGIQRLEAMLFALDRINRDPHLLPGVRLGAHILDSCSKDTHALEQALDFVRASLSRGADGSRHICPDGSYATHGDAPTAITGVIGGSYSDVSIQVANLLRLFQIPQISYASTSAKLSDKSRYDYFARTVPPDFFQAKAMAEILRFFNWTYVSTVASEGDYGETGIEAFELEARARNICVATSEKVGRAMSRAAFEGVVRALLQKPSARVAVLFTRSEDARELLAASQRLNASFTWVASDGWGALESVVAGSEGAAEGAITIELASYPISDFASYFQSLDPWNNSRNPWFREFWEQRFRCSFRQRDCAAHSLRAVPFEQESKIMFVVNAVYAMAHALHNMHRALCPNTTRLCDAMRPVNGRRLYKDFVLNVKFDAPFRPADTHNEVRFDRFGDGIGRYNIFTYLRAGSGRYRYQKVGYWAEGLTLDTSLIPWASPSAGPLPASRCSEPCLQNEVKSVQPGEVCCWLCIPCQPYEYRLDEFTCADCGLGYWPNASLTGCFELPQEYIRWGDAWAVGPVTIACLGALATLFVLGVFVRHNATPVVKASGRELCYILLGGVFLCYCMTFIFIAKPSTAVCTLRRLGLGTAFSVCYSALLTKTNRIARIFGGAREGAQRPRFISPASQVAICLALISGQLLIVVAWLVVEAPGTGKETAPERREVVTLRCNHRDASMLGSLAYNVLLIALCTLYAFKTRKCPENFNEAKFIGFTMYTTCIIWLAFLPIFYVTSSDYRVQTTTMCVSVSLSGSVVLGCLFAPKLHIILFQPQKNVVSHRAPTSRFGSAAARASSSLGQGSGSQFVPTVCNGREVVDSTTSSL
Description: as §1, §2

[3] = Stability test in solution (pH 1.2 and pH 6.5); assay type: physicochemical; conditions: 1 hour; for Compound's percent residue (%) pH 6.5: 20 mM phosphate buffer pH 6.5, 37° C.; for Compound's percent residue (%) pH 1.2: hydrochloric acid solution pH 1.2, 37° C.
Description: Test 2: Stability Test in Solution
A test to determine the stability of Inventive Compounds (I-A) or (I) in a hydrochloric acid solution (pH 1.2) and 20 mM phosphate buffer (pH 6.5) was conducted in accordance with the following method.
A compound was dissolved in a hydrochloric acid solution (pH 1.2) containing hydrochloric acid and sodium chloride or a 20 mM phosphate buffer (pH 6.5) containing disodium hydrogenphosphate, sodium dihydrogenphosphate and sodium chloride to prepare a solution with a concentration of about 50 ng/mL (near the saturated concentration when the compound was not dissolved). The solution was incubated at 37° C. for 1 hour and the compound's concentration before and after the incubation was quantified by high-performance liquid chromatography to calculate the percent residue of the compound. Compounds having low solubility were assessed as being not applicable.
The percent residues of representative compounds in the hydrochloric acid solution (pH 1.2) and the 20 mM phosphate buffer (pH 6.5) are shown in the following Table 2.

mGlu2 receptor, sequence (Q14416 19-872): as above
mGlu3 receptor, sequence (Q14832 23-879): as the sequence (Q14832 23-879) above

Row | SMILES | IC50 [1] [nM] | IC50 [2] [nM] | also measured
1 | N[C@]1(C(=O)O)[C@H]2[C@@H](C[C@H]1OCc1ccc(Cl)c(Cl)c1)[C@]2(F)C(=O)O [MGS0039] |  |  | immobility time in the tail suspension test (mice): shortens immobility time; antagonistic activity (mGlu3 receptor) (mGlu3 receptor): 24 nM; antagonistic activity (mGlu2 receptor) (mGlu2 receptor): 20 nM; immobility time in the forced swimming test (rats): sufficient to suppress immobility time
2 | CC(C)CCO[C@@H]1C[C@@H]2[C@H]([C@]1(N)C(=O)O)[C@@]2(F)C(=O)O [Compound (II)-7, (1R,2R,3R,5R,6R)-2-amino-6-fluoro-3-(3-methylbutoxy)bicyclo[3.1.0]hexane-2,6-dicarboxylic acid] | 173 | 98.8 | 
3 | N[C@]1(C(=O)O)[C@H]2[C@@H](C[C@H]1OCc1ccc(Cl)cn1)[C@]2(F)C(=O)O [Compound (II)-11, (1R,2R,3R,5R,6R)-2-amino-3-[(5-chloropyridin-2-yl)methoxy]-6-fluorobicyclo[3.1.0]hexane-2,6-dicarboxylic acid] | 12.4 | 28.4 | 
4 | N[C@]1(C(=O)O)[C@H]2[C@@H](C[C@H]1OCc1ccc(F)c(F)c1)[C@]2(F)C(=O)O [Compound (II)-2, (1R,2R,3R,5R,6R)-2-amino-3-[(3,4-difluorophenyl)methoxy]-6-fluorobicyclo[3.1.0]hexane-2,6-dicarboxylic acid] | 14.8 | 18.8 | antagonistic activity (mGlu2 receptor) (mGlu2 receptor): ≤ 500 nM
5 | N[C@]1(C(=O)O)[C@H]2[C@@H](C[C@H]1OC1CCCC1)[C@]2(F)C(=O)O [Compound (II)-9, (1R,2R,3R,5R,6R)-2-amino-3-(cyclopentyloxy)-6-fluorobicyclo[3.1.0]hexane-2,6-dicarboxylic acid] | 97.6 | 62.2 | 
6 | N[C@]1(C(=O)O)[C@H]2[C@@H](C[C@H]1OCc1cc[nH]c(=O)c1)[C@]2(F)C(=O)O [Compound (II)-13, (1R,2R,3R,5R,6R)-2-amino-6-fluoro-3-[(2-oxo-1,2-dihycropyridin-4-yl)methoxy]bicyclo[3.1.0]hexane-2.6-dicarboxylic acid] | 4.35 | 37.3 | 
7 | N[C@]1(C(=O)O)[C@H]2[C@@H](C[C@H]1OCc1ccc(F)cc1)[C@@H]2C(=O)O [Compound (II)-15, (1S,2R,3R,5R,6S)-2-amino-3-[(4-fluorophenyl)methoxy]bicyclo[3.1.0]hexane-2,6-dicarboxylic acid] | 60.5 | 32.7 | 
8 | CCCO[C@@H]1C[C@@H]2[C@H]([C@]1(N)C(=O)O)[C@@]2(F)C(=O)O [Compound (II)-3, (1R,2R,3R,5R,6R)-2-amino-6-fluoro-3-propoxybicyclo[3.1.0]hexane-2,6-dicarboxylic acid] | 321 | 75.1 | antagonistic activity (mGlu2 receptor) (mGlu2 receptor): ≤ 500 nM
9 | Cc1ccc(CO[C@@H]2C[C@@H]3[C@H]([C@]2(N)C(=O)O)[C@@]3(F)C(=O)O)cc1 [Compound (II)-12, (1R,2R,3R,5R,6R)-2-amino-6-fluoro-3-[(4-methylphenyl)methoxy]bicyclo[3.1.0]hexane-2.6-dicarboxylic acid] | 54.4 | 24.6 | 
10 | N[C@]1(C(=O)O)[C@H]2[C@@H](C[C@H]1OCc1ccc(C(F)(F)F)cc1)[C@]2(F)C(=O)O [Compound (II)-5, (1R,2R,3R,5R,6R)-2-amino-6-fluoro-3-{[4-(triflouromethyl)phenyl]methoxy}bicyclo[3.1.0]hexane-2,6-dicarboxylic acid] | 279 | 23.7 | 
11 | N[C@]1(C(=O)O)[C@H]2[C@@H](C[C@H]1OCc1cccc(Cl)n1)[C@]2(F)C(=O)O [Compound (II)-8, (1R,2R,3R,5R,6R)-2-amino-3-[(6-chloropyridin-2-yl)methoxy]-6-fluorobicyclo[3.0.1]hexane-2,6-dicarboxylic acid] | 32.3 | 18.6 | 
12 | COc1cc([C@@H](C)O[C@@H]2C[C@@H]3[C@H]([C@]2(N)C(=O)O)[C@@]3(F)C(=O)O)ccc1F [Compound (II)-4, (1R,2R,3R,5R,6R)-2-amino-6-fluoro-3-[(1R)-1-(4-fluoro-3-methoxyphenyl)ethoxy]bicyclo[3.1.0]hexane-2,6-dicarboxylic acid] | 5.04 | 5.22 | 
13 | N[C@]1(C(=O)O)[C@H]2[C@@H](C[C@H]1OCc1ccc(F)cc1)[C@]2(F)C(=O)O [Compound (II)-1, (1R,2R,3R,5R,6R)-2-amino-6-fluoro-3-[(4-fluorophenyl)methoxy]bicyclo[3.1.0]hexane-2,6-dicarboxylic acid] | 36.4 | 36.1 | antagonistic activity (mGlu2 receptor) (mGlu2 receptor): ≤ 500 nM
14 | N[C@]1(C(=O)O)[C@H]2[C@@H](C[C@H]1OCc1cccc(F)c1)[C@]2(F)C(=O)O [Compound (II)-6, (1R,2R,3R,5R,6R)-2-amino-6-fluoro-3-[(3-fluorophenyl)methoxy]bicyclo[3.1.0]hexane-2.6-dicarboxylic acid] | 75.5 | 27.8 | 
15 | N[C@]1(C(=O)O)[C@H]2[C@@H](C[C@H]1OCc1ccc(F)c(F)c1)[C@@H]2C(=O)O [Compound (II)-14, (1S,2R,3R,5R,6S)-2-amino-3-[(3,4-difluorophenyl)methoxy]bicyclo[3.1.0]hexane-2,6-dicarboxylic acid] | 15.2 | 30.1 | 
16 | N[C@]1(C(=O)O)[C@H]2[C@@H](C[C@H]1OCc1ccc(Cl)nc1)[C@]2(F)C(=O)O [Compound (II)-10, (1R,2R,3R,5R,6R)-2-amino-3-[(6-chloropyridin-3-yl)methoxy]-6-fluorobicyclo[3.1.0]hexane-2,6-dicarboxylic acid] | 50.6 | 49.7 | 
17 | CCCO[C@@H]1C[C@@H]2[C@H]([C@]1(N)C(=O)OC(C)OC(=O)O[C@H]1C[C@@H](C)CC[C@@H]1C(C)C)[C@@]2(F)C(=O)O (single isomer, unassigned) [Example 15-B] |  |  | Compound's percent residue (%) pH 6.5 [3]: 103%; Compound's percent residue (%) pH 1.2 [3]: 100%
18 | C[C@@H](OC(=O)C12CC3CC(CC(C3)C1)C2)OC(=O)[C@@]1(N)[C@H]2[C@@H](C[C@H]1OCc1ccc(Cl)nc1)[C@]2(F)C(=O)O [Example 27, (1R,2R,3R,5R,6R)-2-amino-3-[(6-chloropyridin-3-yl)methoxy]-6-fluoro-2-({(1S)-1-[(tricyclo[3.3.1.1^3,7]decane-1-carbonyl)oxy]ethoxy}carbonyl)bicyclo[3.1.0]hexane-6-carboxylic acid] |  |  | Compound's percent residue (%) pH 6.5 [3]: 101%; Compound's percent residue (%) pH 1.2 [3]: 100%
19 | CC(OC(=O)O[C@@H]1C[C@@H]2CC[C@@]1(C)C2(C)C)OC(=O)[C@@]1(N)[C@H]2[C@@H](C[C@H]1OCc1ccc(F)cc1)[C@]2(F)C(=O)O (single isomer, unassigned) [Example 17-A] |  |  | Compound's percent residue (%) pH 6.5 [3]: 97%; Compound's percent residue (%) pH 1.2 [3]: 104%
